Values after ≈ are worked out from the molar mass of the structure shown. Marks after values point to notes of the source that are not given here.
What was measured:
[1] = test system: human skin; assay: Transepidermal water loss (TEWL) of human skin in vitro, reversibility; conditions: for TEWL 1 h after the sample had been removed / TEWL 4 h after the sample had been removed / TEWL 8 h after the sample had been removed / TEWL 12 h after the sample had been removed / TEWL 24 h after the sample had been removed: 24-h application of 1% enhancer (1% Azone, 5% SDS) in 60% PG; for TEWL 1 h after the sample had been removed / TEWL 4 h after the sample had been removed / TEWL 8 h after the sample had been removed / TEWL 12 h after the sample had been removed / TEWL 24 h after the sample had been removed / TEWL before sample application (baseline): mean ± SEM; for reversibility of TEWL increase: after 24-h application, followed 24 h after removal
Text: (§1) We further investigated the direct effects of the selected enhancers on the skin barrier assessed by TEWL and the electrical impedance of human skin in vitro. TEWL is a method commonly used in dermatology[38] to study, for example, the irritant potential of chemicals, skin barrier recovery, or effect of topical formulations, and permeation enhancers[17],[21],[41]–[44]. Electrical impedance measures the opposition of the skin to alternating electrical current and is inversely proportional to the flux of ions. Thus, increased TEWL or decreased impedance indicates a barrier impairment[45],[46]. Electrical impedance or conductance measurements have been used to screen new enhancers or assess the irritation potential of compounds[13],[15],[17],[21],[32],[44],[47]–[50]. Both TEWL and impedance can distinguish between reversible and irreversible effects of enhancers on skin permeability[17],[21],[40],[44],[51].
(§2) Human skin was mounted in Franz diffusion cells in the same way as for the permeation studies. After 1-h equilibration, basal TEWL and impedance values were recorded. Then, 1% enhancer in 60% PG, 60% PG as a negative control, 1% Azone in 60% PG, or 5% SDS in 60% PG as positive (irreversible) controls was applied on the skin (100 µl/cm^2) for 24 h. The residual sample was washed with PBS and gently blotted dry. At 1, 4, 8, 12, and 24 h after sample removal, TEWL, and impedance values were recorded. TEWL was measured using AquaFlux AF 200 (Biox Systems Ltd, London, UK), employing the condenser-chamber measurement method at 26 ± 1.0 °C and 43 ± 3% relative air humidity. Electrical impedance was measured by LCR meter 4080 (Conrad electronic, Hirschau, Germany, measuring range 20 Ω–10 MΩ, error at kΩ values < 0.5%) operated in parallel mode with an alternating frequency of 120 Hz, which was also used in our previous work[21],[44].
(§3) Samples were removed from the skin after 24 h, and TEWL and impedance values were recorded in predetermined time intervals (1, 4, 8, 12, and 24 h after sample removal). Data are presented as the means ± SEM; n ≥ 3. * statistically significant difference compared to the baseline value before the sample application at p < 0.05. ^+ statistically significant compared to the value 1 h after the sample removal at p < 0.05.^ ≠ statistically significant compared to the control (60% PG without enhancer) at the same time point, at p < 0.05.

[2] = test system: human skin; assay: Electrical impedance of human skin in vitro, reversibility; conditions: for impedance 1 h after the sample had been removed / impedance 4 h after the sample had been removed / impedance 8 h after the sample had been removed / impedance 12 h after the sample had been removed / impedance 24 h after the sample had been removed: 24-h application of 1% enhancer (1% Azone, 5% SDS) in 60% PG; for impedance 1 h after the sample had been removed / impedance 4 h after the sample had been removed / impedance 8 h after the sample had been removed / impedance 12 h after the sample had been removed / impedance 24 h after the sample had been removed / impedance before sample application (baseline): mean ± SEM; for recovery of skin impedance after sample removal: after 24-h application, followed 24 h after removal
Text: as §1, §2, §3

[3] = Solubility of model drugs (donor sample, PBS); conditions: for solubility: pH 7.4
Description: (§4) Donor samples for reversibility and infrared studies contained 1% enhancer in 60% PG. All samples were thoroughly mixed, incubated at 32 °C for 24 h, and, if needed, carefully resuspended before applying on the skin. The effects of the studied enhancers on the solubility of model drugs were assessed as described previously.
(§5) The permeation-enhancing potencies of the prepared compounds were evaluated on human skin in Franz diffusion cells. Human skin was slowly thawed, cut into 2 × 2 cm pieces, fixed in Teflon holders with 1-cm^2 circular permeation areas, and mounted into Franz cells epidermal side up. The acceptor compartment (15.9 ± 0.1 ml) was filled with phosphate-buffered saline at pH 7.4 with 0.005% gentamicin (PBS) and stirred at 32 °C throughout the experiment. The skin integrity was checked by electrical impedance (any skin sample with the impedance < 10 kΩ was excluded). Then, 100 µl of a donor sample (infinite dose) was applied to the skin and covered with a glass slide. Acceptor phase samples (300 µl) were collected at predetermined time intervals for 48 h, to reach steady-state and were replaced by the same volume of fresh PBS. […] The drug concentrations were measured by HPLC (see supplementary data).

[4] = Diclofenac permeation through human skin in Franz diffusion cells with co-applied enhancer; type: in vitro ADME; conditions: pH 7.4; 3% DC in 60% PG, no enhancer; human skin in vitro; read-out: permeability coefficient of DC (converted)
Description: as §4, §5
(§6) The flux of the model drug through the skin Jss (µg/cm^2/h) was calculated from the linear region of this plot. The enhancement ratio (ER) was calculated as the ratio of flux with and without an enhancer.
(§7) After the permeation experiment, the cells were dismounted, the skin was carefully washed with PBS, and the permeation area of the skin (1 cm^2) was punched off. After heating the skin fragments to 80 °C for 1 min, the epidermis (E) was peeled off the dermis (D), individually weighed and extracted by 1 and 2 ml, respectively, of an extraction solvent (identical to the mobile phase for the drug HPLC analysis, see supplementary data) for 24 h. The drug concentration was measured by HPLC (see supplementary data).

[5] = test system: human skin; conditions: 5% DC in PBS/isopropyl alcohol 9:1 on human skin; cited from earlier work
[6] = test system: rat skin; conditions: […] DC in ethanol/glycerol/water 6:1:3 on rat skin; cited from earlier work
[7] = test system: human skin; assay: Diclofenac permeation through human skin in Franz diffusion cells with co-applied enhancer; type: in vitro ADME; conditions: 1% enhancer co-applied with 3% DC in 60% PG; for CDERMIS, diclofenac concentration in dermis / CEPIDERMIS, diclofenac concentration in epidermis: after 48 h permeation, mean ± SEM; for ER, enhancement ratio of diclofenac flux: human skin in vitro
Description: as §4, §5, §6, §7

[8] = test system: human skin; assay: Theophylline permeation through human skin in Franz diffusion cells with co-applied enhancer; type: in vitro ADME; conditions: for CDERMIS, theophylline concentration in dermis / CEPIDERMIS, theophylline concentration in epidermis / ER, enhancement ratio of theophylline flux (fold increase in flux over control): 1% enhancer co-applied with 5% TH in 60% PG; for CDERMIS, theophylline concentration in dermis / CEPIDERMIS, theophylline concentration in epidermis: after 48 h permeation, mean ± SEM; for ER, enhancement ratio of theophylline flux (fold increase in flux over control): human skin in vitro
Description: The prepared enhancers were applied at 1% in 60% aqueous propylene glycol (PG) to human skin in vitro; 60% PG was used as a negative control. PG was selected for its synergy with amphiphilic enhancers. Each model drug was co-applied with the enhancer at infinite dose.
as §4, §5, §6, §7

[9] = DC: free acid form; quoted without reference; cited from earlier work

| SMILES | CDERMIS, diclofenac concentration in dermis [7] [µg/mg] | CEPIDERMIS, diclofenac concentration in epidermis [7] [µg/mg] | ER, enhancement ratio of diclofenac flux [7] | CDERMIS, theophylline concentration in dermis [8] [µg/mg] | CEPIDERMIS, theophylline concentration in epidermis [8] [µg/mg] | ER, enhancement ratio of theophylline flux (fold increase in flux over control) [8] | also measured |
| --- | --- | --- | --- | --- | --- | --- | --- |
| CCCCCCCCCCCCN1CCCCCC1=O [Azone, N-dodecylazepan-2-one, reference compound] |  |  |  |  |  |  | TEWL 1 h after the sample had been removed [1]: 67.7 ± 1.3*^≠ g/m^2/h; TEWL 4 h after the sample had been removed [1]: 60.7 ± 1.7*^≠ g/m^2/h; TEWL 8 h after the sample had been removed [1]: 51.9 ± 1.6*^≠+ g/m^2/h; TEWL 12 h after the sample had been removed [1]: 48.8 ± 2.3*^≠+ g/m^2/h; TEWL 24 h after the sample had been removed [1]: 48.3 ± 1.4*^≠+ g/m^2/h; reversibility of TEWL increase [1]: lack of TEWL and impedance reversibility; TEWL before sample application (baseline) [1]: 28.2 ± 3.6 g/m^2/h; impedance 1 h after the sample had been removed [2]: 2.6 ± 0.4* kΩ×cm^2; impedance 4 h after the sample had been removed [2]: 7.8 ± 0.4*^≠ kΩ×cm^2; impedance 8 h after the sample had been removed [2]: 11.2 ± 0.2*^≠+ kΩ×cm^2; impedance 12 h after the sample had been removed [2]: 12.2 ± 0.4*^≠+ kΩ×cm^2; impedance 24 h after the sample had been removed [2]: 12.4 ± 0.8*^≠+ kΩ×cm^2; recovery of skin impedance after sample removal [2]: lack of TEWL and impedance reversibility; impedance before sample application (baseline) [2]: 25.1 ± 2.0 kΩ×cm^2 |
| O=C(O)Cc1ccccc1Nc1c(Cl)cccc1Cl [DC, diclofenac] |  |  |  |  |  |  | solubility ([3]; phosphate-buffered saline): 9450 ± 150 µg/mL (≈ 31.9 mM); Papp at 48 h, 3 % [4]: 0.0144 ×10⁻⁶ cm/s; permeability coefficient of DC [5]: 2.2 × 10^–5 cm/h; permeability coefficient of DC [6]: 11.0 × 10^–5 cm/h |
| CCCCCCCCCCCCOC(=O)C1CC(O)CN1C(C)=O (stereo not drawn) [Hyp2] | 0.90 ± 0.08 | 9.22 ± 0.32 | 3 | 0.20 ± 0.03 | 2.87 ± 0.45 | 10 |  |
| CCCCCCCCCCCCOC(=O)C1CC(O)CN1C(=O)CC (stereo not drawn) [Hyp3] | 0.97 ± 0.07 | 9.18 ± 0.62 | 4 | 0.25 ± 0.07 | 3.64 ± 0.85 |  | ER of epidermal TH concentration ([8]; 1% enhancer with 5% TH in 60% PG, over control): 1.9 |
| CCCCCCCCCCCCOC(=O)C1CC(O)CN1C(=O)CCC (stereo not drawn) [Hyp4] | 1.01 ± 0.05 | 8.99 ± 1.23 | 4 | 0.39 ± 0.07 | 1.96 ± 0.56 | 16 |  |
| CCCCCCCCCCCCOC(=O)C1CC(O)CN1C(=O)CCCC (stereo not drawn) [Hyp5] | 1.02 ± 0.11 | 9.84 ± 1.22 | 5 | 0.23 ± 0.03 | 1.45 ± 0.41 | ~19 |  |
| CCCCCCCCCCCCOC(=O)C1CCC(=O)N1C(C)=O (stereo not drawn) [PCA2] |  |  |  | 0.22 ± 0.03 | 2.33 ± 0.26 | 12 |  |
| CCCCCCCCCCCCOC(=O)C1CCC(=O)N1C(=O)CC (stereo not drawn) [PCA3] |  |  |  | 0.28 ± 0.04 | 2.99 ± 0.37 | 9 |  |
| CCCCCCCCCCCCOC(=O)C1CCC(=O)N1C(=O)CCC (stereo not drawn) [PCA4] |  |  |  | 0.30 ± 0.14 | 2.53 ± 0.23 | 5 |  |
| CCCCCCCCCCCCOC(=O)C1CCC(=O)N1C(=O)CCCC (stereo not drawn) [PCA5] |  |  |  | 0.23 ± 0.07 | 2.14 ± 0.44 | 5 |  |
| CCCCCCCCCCCCOC(=O)C1CCCN1C(=O)CCCC (stereo not drawn) [Pro5] | 1.30 ± 0.25 | 8.51 ± 1.39 |  | 0.26 ± 0.02 | 0.83 ± 0.12 | 24 |  |
| CCCCCCCCCCCCOC(=O)C1CCCN1C(=O)CCCCC (stereo not drawn) [Pro6] | 1.44 ± 0.31 | 10.26 ± 0.38 |  | 0.22 ± 0.03 | 1.14 ± 0.19 | 16 |  |
| CCCCCCCCCCCCOC(=O)C1CCCN1C(=O)CCCCCC (stereo not drawn) [Pro7] | 1.30 ± 0.75 | 8.63 ± 3.11 | 5 | 0.26 ± 0.04 | 0.95 ± 0.09 | 15 |  |
| CCCCCCCCCCCCOC(=O)C1CCCN1C(=O)CCCCCCC (stereo not drawn) [Pro8] | 1.08 ± 0.28 | 10.20 ± 0.96 | 3 | 0.19 ± 0.02 | 0.89 ± 0.25 | 9 |  |
| CCCCCCCCCCCCOS(=O)(=O)[O-].[Na+] [SDS, sodium dodecyl sulfate, reference compound] |  |  |  |  |  |  | TEWL 1 h after the sample had been removed [1]: 47.3 ± 2.2*^≠ g/m^2/h; TEWL 4 h after the sample had been removed [1]: 45.8 ± 4.4* g/m^2/h; TEWL 8 h after the sample had been removed [1]: 38.7 ± 3.1* g/m^2/h; TEWL 12 h after the sample had been removed [1]: 38.2 ± 2.6* g/m^2/h; TEWL 24 h after the sample had been removed [1]: 38.0 ± 2.3* g/m^2/h; reversibility of TEWL increase [1]: lack of TEWL and impedance reversibility; TEWL before sample application (baseline) [1]: 26.1 ± 2.9 g/m^2/h; impedance 1 h after the sample had been removed [2]: 1.9 ± 0.2* kΩ×cm^2; impedance 4 h after the sample had been removed [2]: 3.8 ± 0.2*^≠ kΩ×cm^2; impedance 8 h after the sample had been removed [2]: 5.0 ± 0.3*^≠ kΩ×cm^2; impedance 12 h after the sample had been removed [2]: 5.6 ± 0.3*^≠ kΩ×cm^2; impedance 24 h after the sample had been removed [2]: 6.4 ± 0.3*^≠ kΩ×cm^2; recovery of skin impedance after sample removal [2]: lack of TEWL and impedance reversibility; impedance before sample application (baseline) [2]: 26.7 ± 0.7 kΩ×cm^2 |
| Cn1c(=O)c2[nH]cnc2n(C)c1=O [TH, theophylline] |  |  |  |  |  |  | solubility at 24 h [3]: ~25000 µg/mL (≈ 139 mM); solubility [3]: 7650 ± 20 µg/mL (≈ 42.5 mM); logP [9]: ~ 0 |

— PMC9663686, “Proline, hydroxyproline, and pyrrolidone carboxylic acid derivatives as highly efficient but reversible transdermal permeation enhancers” (Scientific Reports, 2022)
